# Reference: EP0994104A1, “ARYL (SULFIDE, SULFOXIDE AND SULFONE) DERIVATIVES AND DRUGS CONTAINING THE SAME AS THE ACTIVE INGREDIENT” (ONO PHARMACEUTICAL CO., LTD., priority 1996, dated 1997)
# pIC50: −log10 of the molar value.
# Molecular target: T1, gelatinase A (Homo sapiens, UniProt P08253)
# T1 construct: endogenous in cells; host or cells: human normal skin dermal fibroblasts (HNDF)
# T1 sequence (P08253 110-660): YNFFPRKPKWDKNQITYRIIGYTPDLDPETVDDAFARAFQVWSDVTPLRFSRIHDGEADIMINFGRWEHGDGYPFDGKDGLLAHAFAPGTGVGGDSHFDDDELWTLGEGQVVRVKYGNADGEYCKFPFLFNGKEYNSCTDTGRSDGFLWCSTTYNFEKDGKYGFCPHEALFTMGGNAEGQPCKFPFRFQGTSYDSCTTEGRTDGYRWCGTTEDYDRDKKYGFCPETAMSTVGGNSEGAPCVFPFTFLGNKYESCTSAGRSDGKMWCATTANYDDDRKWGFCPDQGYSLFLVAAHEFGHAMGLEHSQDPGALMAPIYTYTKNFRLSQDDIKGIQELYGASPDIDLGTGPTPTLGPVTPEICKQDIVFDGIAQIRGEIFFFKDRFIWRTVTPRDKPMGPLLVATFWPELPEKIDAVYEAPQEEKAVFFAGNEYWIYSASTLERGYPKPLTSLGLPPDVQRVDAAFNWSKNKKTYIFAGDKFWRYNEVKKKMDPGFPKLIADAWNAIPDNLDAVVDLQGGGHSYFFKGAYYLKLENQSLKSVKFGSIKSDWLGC
# Test: Inhibitory activity against gelatinase A (FITC-gelatin degradation, fluorescence)
# Assay type: biochemical
# Conditions: progelatinase A purified from human normal skin dermal fibroblasts (HNDF), activated with APMA; 0.05 % FITC-gelatin, 2 hours at 37°C
# Protocol: (1) Inhibitory activity against gelatinase A.
# The progelatinase A (7 µl; in assay buffer (90 µl) was purified from human normal skin dermal fibroblasts (HNDF). It was activated by the addition of 10 mM APMA (10 µl) for 1 hour at 37°C. The solution of activated gelatinase A (1 U/tube, 98 µl) was mixed with the solution of various concentrations of the test compound or the solution in which the test compound is not added, (2 µl), and 0.05 % FITC-gelatin (100 µl) and incubated for 2 hours at 37°C. The enzymatic reaction was terminated by the addition of 2 M Tris-HCl (pH 9.5) containing 94.7% ethanol (750 µl). The mixture was stirred and then allowed to stand for 30 minutes at 0°C. The mixture was centrifuged for 30 minutes at 900 x g. Inhibitory activity against gelatinase was determined by measuring the fluorescent intensity in supernatant (Ex = 495 nm, and Em = 520 nm).
# In the above experimental method, APMA is p-aminophenylmercuric acetate and FITC is fluorescein isothiocyanate.
row,pIC50,Structure (SMILES)
1,6.27,"O=C(O)CCS(=O)(=O)c1ccc(NC(=O)c2ccccc2)cc1 [Example 8(2), 3-[4-(benzoylamino)phenylsulfonyl]propionic acid]"
2,6.40,"O=C(O)CCS(=O)(=O)c1ccc(C#Cc2ccccc2)cc1 [Example 8(7), 3-[4-(phenylethynyl)phenylsulfonyl]propionic acid]"
3,8.85,"CC(CS(=O)(=O)c1ccc(-c2cc3ccccc3o2)cc1)C(=O)NO (stereo not drawn) [Example 28(1), N-hydroxy-2-methyl-3-[4-(2-benzofuranyl)phenylsulfonyl]propionamide]"
4,8.54,"Cc1ccc(C#Cc2ccc(S(=O)(=O)CC(C)C(=O)NO)cc2)cc1 (stereo not drawn) [Example 28(3), N-hydroxy-2-methyl-3-[4-(4-tolylethynyl)phenylsulfonyl]propionamide]"
5,7.89,"CCCCCC#Cc1ccc(S(=O)(=O)CC(C)C(=O)NO)cc1 (stereo not drawn) [Example 28, N-hydroxy-2-methyl-3-[4-(1-heptynyl)phenylsulfonyl]propionamide]"

row,Structure (SMILES),pIC50
1,"COc1ccc(S(=O)(=O)CC(NC(=O)C(NC(=O)OC(C)(C)C)c2ccccc2)C(=O)NO)cc1 (stereo not drawn) [Example 19(1), N-hydroxy-2-[N-[N-(t-butoxycarbonyl)phenylglycyl]amino]-3-(4-methoxyphenylsulfonyl)propionamide]",7.96
